Usually Ki stands for a measure of affinity in units of concentration, obtained from inhibition or displacement. As usually defined, the IC50 is the midpoint of a concentration-inhibition curve. As usually defined, the EC50 is the concentration at which the effect is half-maximal. A lower EC50 goes with an effect from little substance.

The structures appear in SMILES notation. Active and inactive are the calls of the source.

Experiment [1] deals with Tyrosine-protein kinase Fer (Homo sapiens, UniProt P16591). Type of experiment: functional.
The target in experiment [2] is Hepatocyte growth factor receptor (Homo sapiens, UniProt P08581). Type of experiment: functional.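 Further: kinase panel profiling across the kinome, with MET as the panel member.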
Experiment [3] deals with Calcium/calmodulin-dependent protein kinase type II subunit alpha (Homo sapiens, UniProt Q9UQM7). Description: Navigating the Kinome. Panel member name: CAMK2A. Type of experiment: functional.
In experiment [4] the target is Testis-specific serine/threonine-protein kinase 1 (Homo sapiens, UniProt Q9BXA7). Type of experiment: functional.
Experiment [5] concerns the target Serine/threonine-protein kinase TBK1 (Homo sapiens, UniProt Q9UHD2). The experiment is described as follows: Navigating the Kinome. Panel member name: TBK1. Type of experiment: functional.
The next experiment addresses Misshapen-like kinase 1 (Homo sapiens, UniProt Q8N4C8). The class given is functional.
In experiment [6] the target is T1, Sentrin-specific protease 8 (Homo sapiens, UniProt Q96LD8).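 Further: kinetic enzyme assay of SENP8 cleaving a Nedd8 protein substrate, dose-response confirmation of screening hits.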
T1 sequence (Q96LD8 whole entry): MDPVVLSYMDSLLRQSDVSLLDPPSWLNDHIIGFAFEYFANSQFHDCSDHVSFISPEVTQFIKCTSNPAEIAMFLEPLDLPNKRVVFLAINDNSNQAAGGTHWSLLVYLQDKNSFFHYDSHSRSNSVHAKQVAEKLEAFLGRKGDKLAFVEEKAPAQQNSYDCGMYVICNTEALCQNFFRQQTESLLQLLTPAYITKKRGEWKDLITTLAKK
Type of experiment: functional.

The target of experiment [7] is T2, Sentrin-specific protease 7 (Homo sapiens, UniProt Q9BQF6).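 Further: Luminescence-based dose-response confirmation of ultra-high-throughput screening hits, measuring inhibition of SENP7.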
T2 sequence (Q9BQF6 whole entry): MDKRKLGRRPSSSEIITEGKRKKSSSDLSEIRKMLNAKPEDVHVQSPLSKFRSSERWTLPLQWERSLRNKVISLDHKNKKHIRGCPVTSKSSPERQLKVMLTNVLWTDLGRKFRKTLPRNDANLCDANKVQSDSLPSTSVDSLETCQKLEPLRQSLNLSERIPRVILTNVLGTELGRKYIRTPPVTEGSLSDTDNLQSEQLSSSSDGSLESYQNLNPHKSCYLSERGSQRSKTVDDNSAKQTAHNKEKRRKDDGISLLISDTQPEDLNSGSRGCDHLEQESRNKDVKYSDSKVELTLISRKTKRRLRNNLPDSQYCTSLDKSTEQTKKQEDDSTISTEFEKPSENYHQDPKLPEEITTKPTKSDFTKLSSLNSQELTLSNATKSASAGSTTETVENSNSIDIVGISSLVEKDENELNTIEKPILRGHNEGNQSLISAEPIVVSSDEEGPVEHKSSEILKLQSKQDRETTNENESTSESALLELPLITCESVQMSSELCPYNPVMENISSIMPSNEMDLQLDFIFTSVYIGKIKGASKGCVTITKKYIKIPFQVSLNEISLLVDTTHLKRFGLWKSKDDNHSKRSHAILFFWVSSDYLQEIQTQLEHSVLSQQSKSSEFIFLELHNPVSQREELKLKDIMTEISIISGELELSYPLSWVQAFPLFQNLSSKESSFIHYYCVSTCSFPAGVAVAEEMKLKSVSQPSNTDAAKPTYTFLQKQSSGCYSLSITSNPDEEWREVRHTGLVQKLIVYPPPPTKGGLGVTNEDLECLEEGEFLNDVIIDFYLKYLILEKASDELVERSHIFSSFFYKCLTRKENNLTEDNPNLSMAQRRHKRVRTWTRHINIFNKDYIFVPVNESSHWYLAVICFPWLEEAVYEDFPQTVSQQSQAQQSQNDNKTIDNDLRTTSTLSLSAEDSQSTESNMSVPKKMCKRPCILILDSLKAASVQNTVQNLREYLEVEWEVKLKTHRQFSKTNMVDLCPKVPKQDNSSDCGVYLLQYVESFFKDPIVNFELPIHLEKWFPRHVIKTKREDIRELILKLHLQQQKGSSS
The class given is functional.

A further experiment in a line: cells. The class given is functional, cell-based.
Experiment [8] deals with T3, Apoptotic protease-activating factor 1 (Homo sapiens, UniProt O14727).
T3 sequence (O14727 whole entry): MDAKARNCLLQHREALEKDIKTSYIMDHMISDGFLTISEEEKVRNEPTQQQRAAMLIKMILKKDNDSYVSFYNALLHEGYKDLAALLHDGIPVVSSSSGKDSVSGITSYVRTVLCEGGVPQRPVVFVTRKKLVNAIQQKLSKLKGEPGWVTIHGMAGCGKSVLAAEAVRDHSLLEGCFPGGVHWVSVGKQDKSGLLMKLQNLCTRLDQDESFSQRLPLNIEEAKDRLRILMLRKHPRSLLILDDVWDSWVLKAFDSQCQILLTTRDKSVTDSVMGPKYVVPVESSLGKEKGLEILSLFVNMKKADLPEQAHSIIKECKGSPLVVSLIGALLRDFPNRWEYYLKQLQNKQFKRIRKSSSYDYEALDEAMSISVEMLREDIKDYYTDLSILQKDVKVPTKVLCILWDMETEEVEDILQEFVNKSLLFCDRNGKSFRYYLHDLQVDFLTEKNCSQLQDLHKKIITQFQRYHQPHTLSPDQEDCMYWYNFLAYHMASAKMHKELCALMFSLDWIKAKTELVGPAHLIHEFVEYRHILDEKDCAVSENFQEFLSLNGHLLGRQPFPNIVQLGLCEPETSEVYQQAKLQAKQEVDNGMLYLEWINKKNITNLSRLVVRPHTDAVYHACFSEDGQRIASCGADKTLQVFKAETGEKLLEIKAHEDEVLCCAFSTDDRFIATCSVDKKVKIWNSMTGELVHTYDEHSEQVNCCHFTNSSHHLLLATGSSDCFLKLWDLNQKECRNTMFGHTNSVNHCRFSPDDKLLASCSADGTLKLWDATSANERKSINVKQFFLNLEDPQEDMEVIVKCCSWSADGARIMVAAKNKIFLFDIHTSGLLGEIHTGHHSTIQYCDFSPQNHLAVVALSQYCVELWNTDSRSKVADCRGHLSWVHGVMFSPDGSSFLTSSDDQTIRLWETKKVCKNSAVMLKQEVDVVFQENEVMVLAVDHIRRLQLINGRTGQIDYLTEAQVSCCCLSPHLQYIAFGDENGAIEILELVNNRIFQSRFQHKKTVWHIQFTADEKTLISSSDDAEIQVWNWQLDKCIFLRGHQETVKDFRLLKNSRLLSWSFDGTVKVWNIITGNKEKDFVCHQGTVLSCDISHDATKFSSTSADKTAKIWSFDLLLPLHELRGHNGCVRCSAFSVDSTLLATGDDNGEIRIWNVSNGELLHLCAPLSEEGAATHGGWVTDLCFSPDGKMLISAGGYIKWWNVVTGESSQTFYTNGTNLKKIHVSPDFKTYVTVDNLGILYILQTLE
The class given is functional.

The nature of experiment [9]: Counterscreen for AddAB inhibitors: absorbance-based bacterial cell-based high throughput dose response assay for inhibitors of bacterial viability. [Related pubchem assays (depositor defined):AID435030, AID449728, AID449731, AID488942, AID488955, AID488956]. The class given is functional. For orientation: Counterscreens check selectivity or assay interference.

Chain of Testis-specific serine/threonine-protein kinase 1 (Q9BXA7 whole entry): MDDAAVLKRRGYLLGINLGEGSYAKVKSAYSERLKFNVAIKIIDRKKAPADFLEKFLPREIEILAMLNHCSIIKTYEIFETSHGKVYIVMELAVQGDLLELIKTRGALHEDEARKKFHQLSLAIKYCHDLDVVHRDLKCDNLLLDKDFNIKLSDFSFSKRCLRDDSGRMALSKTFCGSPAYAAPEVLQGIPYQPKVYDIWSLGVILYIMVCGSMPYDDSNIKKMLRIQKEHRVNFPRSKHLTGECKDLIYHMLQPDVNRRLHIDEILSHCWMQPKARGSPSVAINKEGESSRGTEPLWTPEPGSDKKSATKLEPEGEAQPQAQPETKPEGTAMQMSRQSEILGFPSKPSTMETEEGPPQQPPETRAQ
Chain of Serine/threonine-protein kinase TBK1 (Q9UHD2 whole entry): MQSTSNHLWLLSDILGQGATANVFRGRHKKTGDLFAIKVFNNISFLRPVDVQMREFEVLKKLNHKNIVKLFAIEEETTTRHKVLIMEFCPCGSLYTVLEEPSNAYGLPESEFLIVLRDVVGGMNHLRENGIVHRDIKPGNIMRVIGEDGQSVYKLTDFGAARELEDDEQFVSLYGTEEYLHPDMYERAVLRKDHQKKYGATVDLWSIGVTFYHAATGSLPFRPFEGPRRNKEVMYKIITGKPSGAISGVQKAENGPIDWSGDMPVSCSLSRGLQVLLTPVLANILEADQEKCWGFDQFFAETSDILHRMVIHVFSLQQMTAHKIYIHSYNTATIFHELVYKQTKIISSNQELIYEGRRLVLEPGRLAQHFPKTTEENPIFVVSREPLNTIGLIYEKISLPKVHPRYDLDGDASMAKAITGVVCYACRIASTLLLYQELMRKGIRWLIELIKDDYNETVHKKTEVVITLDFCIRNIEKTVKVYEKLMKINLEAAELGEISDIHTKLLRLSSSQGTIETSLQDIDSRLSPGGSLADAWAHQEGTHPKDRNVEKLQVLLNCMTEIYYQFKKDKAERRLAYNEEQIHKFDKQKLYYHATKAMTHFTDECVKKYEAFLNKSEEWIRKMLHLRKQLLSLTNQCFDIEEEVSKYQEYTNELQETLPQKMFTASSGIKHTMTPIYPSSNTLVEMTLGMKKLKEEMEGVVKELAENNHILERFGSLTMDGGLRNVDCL
Chain of Tyrosine-protein kinase Fer (P16591 whole entry): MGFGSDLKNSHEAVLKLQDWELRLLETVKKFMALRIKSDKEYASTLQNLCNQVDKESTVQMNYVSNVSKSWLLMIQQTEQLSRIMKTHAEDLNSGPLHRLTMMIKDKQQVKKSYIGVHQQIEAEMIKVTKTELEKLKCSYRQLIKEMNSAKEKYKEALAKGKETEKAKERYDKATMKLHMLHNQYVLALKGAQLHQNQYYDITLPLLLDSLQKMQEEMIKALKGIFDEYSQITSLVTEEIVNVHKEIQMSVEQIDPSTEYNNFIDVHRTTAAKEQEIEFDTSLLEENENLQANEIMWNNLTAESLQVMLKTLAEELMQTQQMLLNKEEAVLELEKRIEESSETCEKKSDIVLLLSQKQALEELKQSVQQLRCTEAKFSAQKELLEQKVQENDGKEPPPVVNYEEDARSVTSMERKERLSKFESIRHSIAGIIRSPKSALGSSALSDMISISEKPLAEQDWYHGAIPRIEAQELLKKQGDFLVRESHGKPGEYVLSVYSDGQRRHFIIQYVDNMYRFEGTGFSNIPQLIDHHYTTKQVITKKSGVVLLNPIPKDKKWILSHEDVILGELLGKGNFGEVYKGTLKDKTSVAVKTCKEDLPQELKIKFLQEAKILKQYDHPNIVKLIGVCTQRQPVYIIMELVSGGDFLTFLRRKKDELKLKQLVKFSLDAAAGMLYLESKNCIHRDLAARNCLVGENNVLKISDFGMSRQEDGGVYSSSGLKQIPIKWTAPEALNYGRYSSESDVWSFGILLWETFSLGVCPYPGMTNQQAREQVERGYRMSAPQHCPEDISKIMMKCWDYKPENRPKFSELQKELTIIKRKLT
Chain of Hepatocyte growth factor receptor (P08581 whole entry): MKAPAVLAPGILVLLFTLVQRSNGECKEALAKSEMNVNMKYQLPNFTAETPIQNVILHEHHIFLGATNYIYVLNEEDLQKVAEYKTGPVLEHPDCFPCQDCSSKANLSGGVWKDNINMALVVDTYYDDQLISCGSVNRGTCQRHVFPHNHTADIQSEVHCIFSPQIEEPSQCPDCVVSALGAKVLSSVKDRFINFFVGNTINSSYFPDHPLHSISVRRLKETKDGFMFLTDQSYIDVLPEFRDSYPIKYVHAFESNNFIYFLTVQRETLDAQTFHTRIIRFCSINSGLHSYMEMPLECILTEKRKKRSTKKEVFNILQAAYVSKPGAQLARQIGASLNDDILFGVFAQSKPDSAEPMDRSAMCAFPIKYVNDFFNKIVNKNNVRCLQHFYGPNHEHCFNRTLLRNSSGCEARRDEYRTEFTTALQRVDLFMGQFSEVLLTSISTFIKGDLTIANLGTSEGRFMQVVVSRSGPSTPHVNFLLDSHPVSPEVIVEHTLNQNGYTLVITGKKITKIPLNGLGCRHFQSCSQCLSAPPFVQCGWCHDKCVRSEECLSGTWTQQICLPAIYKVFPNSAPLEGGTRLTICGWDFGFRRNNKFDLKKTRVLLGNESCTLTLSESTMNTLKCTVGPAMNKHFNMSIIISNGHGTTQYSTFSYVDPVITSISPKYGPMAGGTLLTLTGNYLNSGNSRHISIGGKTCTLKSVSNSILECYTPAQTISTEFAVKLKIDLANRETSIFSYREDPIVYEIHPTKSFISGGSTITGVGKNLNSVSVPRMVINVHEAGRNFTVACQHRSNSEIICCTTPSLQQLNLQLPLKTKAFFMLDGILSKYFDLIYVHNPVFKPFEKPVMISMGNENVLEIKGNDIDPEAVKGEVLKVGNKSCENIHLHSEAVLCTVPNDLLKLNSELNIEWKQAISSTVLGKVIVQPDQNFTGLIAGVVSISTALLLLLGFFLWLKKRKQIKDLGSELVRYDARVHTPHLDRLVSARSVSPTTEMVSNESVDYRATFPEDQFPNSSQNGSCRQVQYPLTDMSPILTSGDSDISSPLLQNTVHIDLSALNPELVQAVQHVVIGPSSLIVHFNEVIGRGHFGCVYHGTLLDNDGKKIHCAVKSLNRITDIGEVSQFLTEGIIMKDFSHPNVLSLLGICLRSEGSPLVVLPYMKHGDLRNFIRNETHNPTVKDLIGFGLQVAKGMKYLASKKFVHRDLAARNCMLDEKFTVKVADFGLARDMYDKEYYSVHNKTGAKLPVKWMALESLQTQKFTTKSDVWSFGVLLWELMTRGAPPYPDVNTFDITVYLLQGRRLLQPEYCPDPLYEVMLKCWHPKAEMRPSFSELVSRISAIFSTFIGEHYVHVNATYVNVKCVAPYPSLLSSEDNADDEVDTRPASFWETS
Chain of Calcium/calmodulin-dependent protein kinase type II subunit alpha (Q9UQM7 whole entry): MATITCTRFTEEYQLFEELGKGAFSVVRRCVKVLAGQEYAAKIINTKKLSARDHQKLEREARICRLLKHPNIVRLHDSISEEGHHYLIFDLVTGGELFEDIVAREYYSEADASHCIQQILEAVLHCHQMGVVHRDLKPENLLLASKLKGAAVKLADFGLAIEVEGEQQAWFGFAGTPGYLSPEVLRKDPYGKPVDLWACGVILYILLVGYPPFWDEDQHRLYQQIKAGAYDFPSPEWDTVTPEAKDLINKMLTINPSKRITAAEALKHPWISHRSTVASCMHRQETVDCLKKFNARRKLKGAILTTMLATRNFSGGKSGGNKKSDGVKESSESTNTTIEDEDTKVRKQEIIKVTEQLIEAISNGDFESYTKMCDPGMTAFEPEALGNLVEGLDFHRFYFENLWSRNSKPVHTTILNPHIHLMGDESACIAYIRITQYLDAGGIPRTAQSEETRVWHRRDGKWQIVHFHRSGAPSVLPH

For the compound `OC1CCC(Nc2cc(Cl)nc(-c3c[nH]c4ncccc34)n2)CC1` (configuration not stated), the Ki in [1] is 0.501 µM (active); in experiment [2], > 2 µM (inactive); in experiment [3] it was > 3.16 µM (inactive); in experiment [4], > 1 µM (inactive); in experiment [5], > 3.16 µM (inactive); on Misshapen-like kinase 1 it was 0.00398 µM (active).
Consider `O=C(COC(=O)c1ccc([N+](=O)[O-])s1)NCCc1ccccc1`, for which the IC50 was 3.23 µM (active) in experiment [6] and 7.56 µM (active) in experiment [7].
For the compound `CCOC(=O)c1c(NS(=O)(=O)c2ccccc2)n(CCCOC)c2nc3ccccc3nc12`, in the experiment “cells”, the EC50 is > 350 µM (not active). Also, the IC50 in experiment [8] is 24.2 µM (active); in experiment [7], 1.02 µM (active).
As for `COCC/N=c1\scc(-c2cccs2)n1/N=C/c1ccc(O)c(O)c1O`, in [9], the IC50 was > 119 µM (inactive).

For the origin of these results see ChEMBL document CHEMBL1201862, “PubChem BioAssay data set” (2004).
